Measured values as given in publication PMC11091117, “A fluorescently-tagged tick kinin neuropeptide triggers peristalsis and labels tick midgut muscles” (Scientific Reports, 2024).
“Also recorded” adds a separate entry of the source.

Columns and labels:
[1] = tested on: vector-only (V/O) CHO-K1 cells; test: Confocal visualization on live vector-only cells with fluorescently labeled kinin peptide; type: binding; details: 10 µM labeled peptide, 1 min, HBSS, confocal Leica SP8
Excerpt: Three peptides were used in this study. These included: 1) the ligand for the endogenous tick kinin receptor from Rhipicephalus sanguineus, Rhisa-kinin 8 peptide of sequence GTGEDQAFSPWGamide (Rhisa-K-8; RK8; of identical sequence to Rhimi-K-8 in Rhipicephalus microplus)[48], 2) the same peptide but fluorescently labeled at the N-terminus with tetramethylrhodamine (TMR) a red fluorescent dye, designated TMR-Rhisa-K-8 (TMR-RK8), and 3) a labeled peptide synthesized with the scrambled sequence of the kinin ligand, designated TMR-Scrambled. The sequence of TMR-RK8 was TMR-C-GTGEDQAFSPWGamide). The TMR-Scrambled kinin (TMR-C-GTQWGPGFEADSamide) served as a negative control for tissue labeling. […]
The BMLK3 and V/O cells (5000–10,000 cells) were seeded separately in 200 µL selective media onto the two chambers of the cover glass (Lab-Tek Chambered Coverglass, 4.2 cm^2 area, #1.0 German borosilicate glass, sterile, Cat # 155,380, Thermo Fisher Scientific Inc., Walthams, MA) and grown in the incubator overnight at 37 °C and 5% CO2. The next day, cells would be ready for fluorescent labeling: the selective media was replaced with 200 µL HBSS to rinse the cells. […] Images were analyzed and computer-colored using Fiji/ImageJ (National Institutes of Health, Bethesda, MD). […]

[2] = tested on: tick kinin receptor in midgut muscles; test: Fluorescent labeling of live midgut ex vivo, confocal microscopy; type: binding, Rhipicephalus sanguineus; details: 10 µM labeled peptide, 1 min
Excerpt: Three peptides were used in this study. These included: 1) the ligand for the endogenous tick kinin receptor from Rhipicephalus sanguineus, Rhisa-kinin 8 peptide of sequence GTGEDQAFSPWGamide (Rhisa-K-8; RK8; of identical sequence to Rhimi-K-8 in Rhipicephalus microplus)[48], 2) the same peptide but fluorescently labeled at the N-terminus with tetramethylrhodamine (TMR) a red fluorescent dye, designated TMR-Rhisa-K-8 (TMR-RK8), and 3) a labeled peptide synthesized with the scrambled sequence of the kinin ligand, designated TMR-Scrambled. The sequence of TMR-RK8 was TMR-C-GTGEDQAFSPWGamide). The TMR-Scrambled kinin (TMR-C-GTQWGPGFEADSamide) served as a negative control for tissue labeling. All peptides were custom-synthesized and purchased from GenScript (Piscataway, NJ, USA) with a purity of ≥ 95% and the cysteine in bold in both sequences was added to attach the label. Experiments were replicated with independently synthesized batches (4 mg each) of labeled and unlabeled peptides, for reproducibility. Unlabeled RK8 was used as a competitive ligand to verify target-specific binding of the labeled TMR-RK8 (see Ligand Competition Assay). For cell assays, the peptide stock solutions (100 µM) were made in 1% dimethyl sulfoxide (DMSO) in Hank’s balanced salt solution (HBSS, Thermo Fisher, Waltham, USA). For fluorescent cell labeling, peptide working solutions (10 µM) were prepared in HBSS from stock solutions. For assays on the midgut, peptides were solubilized and diluted in a tick physiological saline consisting of 140 mM NaCl, 5 mM KCl, 1 mM MgCl2, 5 mM CaCl2, 4 mM NaHCO3, and 5 mM HEPES, pH 7.2[49].
(§1) Individual female ticks were immobilized on a Petri dish filled with wax by submerging their legs in melted wax heated with a soldering pencil (Electronic Control Soldering Station EC 1000, Weller, Apex, North Carolina, USA). Females were dissected under physiological saline following the protocol described by Tidwell et al.[51]. The tick was cut along the edge of the scutum/alloscutum using a stainless steel #12 scalpel blade (Integra Miltex, York, PA, USA), after which the scutum was removed with a pair of fine forceps. To expose the midgut for removal, the tracheae, Malpighian tubules, ovaries, rectal sac, and synganglion were removed with fine forceps in that order. The midgut was then carefully removed and placed into 200 µL of fresh tick saline (See Reagents and Peptides) on a single gasketed incubation chamber (500 µL, Size 22 × 40 mm, Electron Microscopy Sciences, Hatfield, PA). The midguts were then rinsed three times with the physiological tick saline for subsequent fluorescent labeling or activity experiments.
To determine the location of the tick kinin receptor in the midgut of ticks, a commercially synthesized Rhisa-kinin peptide 8[52] conjugated with a stable, red fluorophore (TMR-RK8) or a similarly labeled peptide of scrambled sequence (TMR-Scrambled) were applied to freshly dissected midguts ex vivo. For this, midguts of unfed adult females were incubated in ice-cold saline for 10 min. The saline was removed before incubation in 200 µL of 4’,6-diamidino-2-phenylindole dihydrochloride (DAPI, Sigma, 1 µg/mL in saline) for 1 min and rinsed with saline (200 µL) once. After saline removal, the midgut was incubated for 1 min with 200 µL of 10 µM of either TMR-Scrambled kinin or TMR-RK8, then the labeled peptide solution was removed by pipette and the midgut was rinsed twice with 200 µL saline. […]

[3] = tested on: tick midgut; test: Tick midgut contraction assay with EthoVision video analysis; set-up: species or system Rhipicephalus sanguineus
Excerpt: as §1
Midguts were dissected from immobilized female ticks under tick saline, as described under the Midgut Dissection. Ten different midguts were used for each of the two treatments, and ticks were of the same age and batch and had been maintained under the same conditions. Dissected midguts were placed individually into 200 µL of tick saline for 10 min at 28 °C on a gasketed glass coverslip (500 µL, Size 22 × 40 mm) serving as incubation chamber. […] After the final wash and removal of saline, 200 µL of saline were added, and a microscopy coverslip (24 × 60 mm, VWR, Radnor, PA) was placed over the gasketed portion of the incubation chamber, which height (0.5 mm) fits to prevent the midgut from floating, but still allows midgut peristalsis. The midguts were observed and filmed under a dissecting microscope (Olympus SZ61, Japan) equipped with an Infinity 5 camera (Teledyne Lumenera, Ottawa, ON, Canada). All videos were recorded for 1 min with the INFINITY ANALYZE 7 software (Teledyne Lumenera) at 30 frames/second with a 2464 × 2056 resolution. The field of view in all videos recorded represents 4 × 3.5 mm to capture the entire tick midguts under saline. All video files in Windows Media Video (.wmv) format obtained from the Infinity Analyze 7 software were converted to the MP4 format using CloudConvert (cloudconvert.com, Lunaweb, Munich, Germany) for analyses with the EthoVision XT 17 software (Noldus Information Technology, Wageningen, The Netherlands).
We used the EthoVision 17 XT software to quantify the “activity” (pixel change) of the midguts from the videos recorded. This software defines activity as the percentage of pixels that have changed in the entire defined arena between the current image and previous image. The videos are recorded in 2464 × 2056 resolution and the arena is set to be the entire video screen. Video files were uploaded into the program and analyzed starting from time zero to the end of the 60 s video. Detection settings for activity included the activity threshold which was set to 5 to achieve zero detection when the midgut was immobile. Although the video captured 30 frames (images) per s, for the video analysis we chose a “sample rate” of 7 samples /s, with sample rate being the number of images from the video the EthoVision program analyzes per second. To calculate activity, each pixel of the video image was compared from one image to the next, and the proportion of pixel changes was calculated by dividing the number of pixels changed from one image to the next by the total number of pixels in the image. Care was given for the midgut to occupy most of the arena, as the activity analyses will reflect the midgut movement as a proportion of the total arena. Midgut activity is observed as pixel changes, which are represented by the red-colored pixels in the S4 video. The mean pixel change per midgut was then determined by averaging the pixel changes from all samples within the recording period. […]

Q: Which results are given for TMR-C-GTQWGPGFEADSamide [TMR-Scrambled]?
A: labeling of vector-only cells (in words) [1]: not labeled by either peptide; non-specific labeling below midgut surface (in words) ([2]; midguts ex vivo, Z-slices under the surface): non-specific aggregation in lipid vesicles beneath the midgut surface; also recorded: non-specific labeling observed in lipid vesicles inside the midgut; labeling of midgut surface muscles (in words) ([2]; tick saline pH 7.2, midguts of unfed females ex vivo, DAPI and Alexa 488-phalloidin, confocal 20X/40X): did not significantly bind to the surface of the tick midgut; also recorded: did not show specific binding to the midgut of ticks; also recorded: specific muscle surface staining was not observed; also recorded: No signal; also recorded: grid-like fluorescent pattern was not observed; midgut contractions, S5 Video (in words) ([3]; 1 µM TMR-Scrambled, after 10 min of exposure, 4X speed): did not induce contractions; midgut peristalsis/contractions (in words) ([3]; 10 µM, 1 min, 28 °C, midguts of unfed females ex vivo, video recorded 1 min): did not elicit peristalsis; also recorded: low to imperceptible activity; also recorded: did not display significant activity; mean activity (mean pixel change, percentage of pixels changed in arena) ([3]; 10 µM, 1 min, rinsed twice, 28 °C, tick saline, 60 s video, 7 samples/s, EthoVision XT 17, activity threshold 5, N = 10 midguts): less than 0.1%
